Source: the supplement of paper PMC13380429

Experiments:
Details in all cases: 72 h
[1] = system: Vero E6; test: cell viability relative to DMSO; higher = less toxic
[2] = system: Calu-3; test: as above
[3] = system: U2OS; test: as above
[4] = system: Caco-2; test: as above
[5] = system: HepG2; test: as above
[6] = system: Vero E6; test: relative viability EC50 (midpoint between 100% and the lowest measured viability); higher = less toxic
[7] = system: Calu-3; test: as above
[8] = system: U2OS; test: as above
[9] = system: Caco-2; test: as above
[10] = system: HepG2; test: as above
[11] = system: Vero E6; test: drug sensitivity score (DSS) for viability; higher = more toxic; extreme values may be limits of the assay
[12] = system: Calu-3; test: as above
[13] = system: U2OS; test: as above
[14] = system: Caco-2; test: as above
[15] = system: HepG2; test: as above

| SMILES | cell viability ([1]; 1 nM) | cell viability ([1]; 10 nM) | cell viability ([1]; 100 nM) | cell viability ([1]; 1000 nM) | cell viability ([1]; 10000 nM) | cell viability ([2]; 1 nM) | cell viability ([2]; 10 nM) | cell viability ([2]; 100 nM) | cell viability ([2]; 1000 nM) | cell viability ([2]; 10000 nM) | cell viability ([3]; 1 nM) | cell viability ([3]; 10 nM) | cell viability ([3]; 100 nM) | cell viability ([3]; 1000 nM) | cell viability ([3]; 10000 nM) | cell viability ([4]; 1 nM) | cell viability ([4]; 10 nM) | cell viability ([4]; 100 nM) | cell viability ([4]; 1000 nM) | cell viability ([4]; 10000 nM) | cell viability ([5]; 1 nM) | cell viability ([5]; 10 nM) | cell viability ([5]; 100 nM) | cell viability ([5]; 1000 nM) | cell viability ([5]; 10000 nM) | relative viability EC50 [6] | relative viability EC50 [7] | relative viability EC50 [8] | relative viability EC50 [9] | relative viability EC50 [10] | drug sensitivity score [11] | drug sensitivity score [12] | drug sensitivity score [13] | drug sensitivity score [14] | drug sensitivity score [15] |
| --- | --- | --- | --- | --- | --- | --- | --- | --- | --- | --- | --- | --- | --- | --- | --- | --- | --- | --- | --- | --- | --- | --- | --- | --- | --- | --- | --- | --- | --- | --- | --- | --- | --- | --- | --- |
| CC(C)(C)C(=O)Oc1ccc(S(=O)(=O)Nc2ccccc2C(=O)NCC(=O)O)cc1 [sivelestat] | 107% | 96.5% | 104% | 98.8% | 100% | 97.2% | 96.1% | 90.5% | 103% | 109% | 98.5% | 100% | 96.2% | 101% | 96.5% | 91% | 97% | 94.1% | 93.5% | 91.3% | 101% | 92.6% | 103% | 90% | 98.3% | > 10 µM | > 10 µM | > 10 µM | > 10 µM | > 10 µM | 0 | 0 | 0 | 0 | 0 |
| OC[C@H]1O[C@H]([S-])[C@H](O)[C@@H](O)[C@@H]1O.[Au+] [aurothioglucose] | 87.3% | 91.2% | 86.7% | 89.5% | 117% | 101% | 92.1% | 97.3% | 106% | 100% | 96.1% | 98.4% | 98.7% | 91.8% | 27.4% | 108% | 92.2% | 98.7% | 91.3% | 84.2% | 90.4% | 106% | 106% | 120% | 97.5% | > 10 µM | > 10 µM | 2.24 µM | > 10 µM | > 10 µM | 0 | 0 | 5.4 | 0.5 | 0 |
| CC1(C)OC[C@@H](COC(=O)CCc2ccc(OC[C@@H](O)CNCCNC(=O)N3CCOCC3)cc2)O1 [landiolol] | 96.2% | 97.4% | 93.4% | 94.6% | 96.6% | 105% | 97.7% | 97.2% | 104% | 101% | 98.4% | 99.2% | 96.9% | 101% | 97.1% | 111% | 103% | 98.2% | 108% | 107% | 81.9% | 106% | 104% | 86.3% | 96.8% | > 10 µM | > 10 µM | > 10 µM | > 10 µM | > 10 µM | 0 | 0 | 0 | 0 | 0 |
| Cc1cccc(Oc2cnc(=O)[nH]c2)c1 [tolimidone] | 108% | 95.4% | 90.3% | 95.7% | 91.2% | 108% | 93.8% | 92.2% | 99.7% | 95.8% | 103% | 98.4% | 103% | 99.9% | 104% | 111% | 95.7% | 94.8% | 95.9% | 102% | 111% | 95.4% | 80.8% | 94.1% | 98% | > 10 µM | > 10 µM | > 10 µM | > 10 µM | > 10 µM | 0 | 0 | 0 | 0 | 0 |
| CO/N=C(\C(=O)N[C@@H]1C(=O)N2C(C(=O)OCOC(=O)C(C)(C)C)=C(C)CS[C@H]12)c1csc(N)n1 [cefetamet-pivoxil] | 91.5% | 103% | 89.5% | 91.7% | 108% | 104% | 93.2% | 102% | 114% | 103% | 102% | 93.5% | 99.6% | 104% | 99.5% | 108% | 96.5% | 105% | 99.7% | 97.9% | 102% | 113% | 90.9% | 97.8% | 93% | > 10 µM | > 10 µM | > 10 µM | > 10 µM | > 10 µM | 0 | 0 | 0 | 0 | 0 |
| CN[C@H]1C(=O)N[C@@H]2Cc3ccc(cc3)Oc3cc4cc(c3O[C@@H]3O[C@H](C(=O)O)[C@@H](O)[C@H](O)[C@H]3NC(=O)CCCCCCCCC(C)C)Oc3ccc(cc3Cl)[C@@H](O)[C@@H]3NC(=O)[C@H](NC(=O)[C@@H]4NC(=O)[C@@H](NC2=O)c2cc(cc(O)c2Cl)Oc2cc1ccc2O)c1ccc(O)c(c1)-c1c(O[C@H]2O[C@H](CO)[C@@H](O)[C@H](O)[C@@H]2O)cc(O)cc1[C@@H](C(=O)NCCCN(C)C)NC3=O [dalbavancin] | 111% | 114% | 109% | 87.3% | 102% | 95.2% | 102% | 95.2% | 103% | 95% | 99.1% | 100% | 96.9% | 98% | 95.8% | 89.3% | 106% | 92.6% | 111% | 90.1% | 88.7% | 94.3% | 118% | 91.4% | 116% | > 10 µM | > 10 µM | > 10 µM | > 10 µM | > 10 µM | 0 | 0 | 0 | 0 | 0 |
| CC(=O)N[C@H]1[C@@H](OC(C)C)O[C@H](COC(C)=O)[C@@H](OC(C)=O)[C@@H]1OC(C)=O [C34] | 96.2% | 96.2% | 97.1% | 96.6% | 95.5% | 112% | 96.1% | 103% | 95.5% | 101% | 102% | 106% | 96.9% | 103% | 96.3% | 106% | 109% | 91.8% | 101% | 98.5% | 95.3% | 102% | 102% | 102% | 110% | > 10 µM | > 10 µM | > 10 µM | > 10 µM | > 10 µM | 0 | 0 | 0 | 0 | 0 |
